{"source": "paper PMC8539420", "about": "“Discovery of a Potent and Selective JNK3 Inhibitor with Neuroprotective Effect Against Amyloid β-Induced Neurotoxicity in Primary Rat Neurons” (International Journal of Molecular Sciences, 2021)", "data": [{"biological_target": "T1, JNK3(h) (Homo sapiens, UniProt P53779)", "T1 construct": "purchased Reaction Biology Corp", "T1 sequence (P53779 whole entry)": "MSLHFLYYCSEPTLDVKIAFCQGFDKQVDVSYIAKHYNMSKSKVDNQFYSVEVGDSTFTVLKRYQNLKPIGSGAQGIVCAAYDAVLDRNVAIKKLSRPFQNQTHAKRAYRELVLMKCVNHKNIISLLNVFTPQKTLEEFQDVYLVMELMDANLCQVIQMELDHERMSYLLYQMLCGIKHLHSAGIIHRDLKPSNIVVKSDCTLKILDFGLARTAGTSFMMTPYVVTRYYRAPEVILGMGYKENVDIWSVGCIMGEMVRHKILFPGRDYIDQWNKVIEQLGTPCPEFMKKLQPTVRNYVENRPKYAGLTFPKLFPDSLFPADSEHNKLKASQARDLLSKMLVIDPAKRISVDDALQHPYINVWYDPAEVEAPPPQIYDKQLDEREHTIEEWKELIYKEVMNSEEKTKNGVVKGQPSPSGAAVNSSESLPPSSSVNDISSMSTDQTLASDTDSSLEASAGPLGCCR", "experiment": "Kinase HotSpot radiometric assay, JNK3", "type": "biochemical", "settings": "ATP 10 μM, substrate ATF2 5 μM; read-out: JNK3 inhibitory activity IC50", "units": {"IC50": "µM"}, "values": [{"smiles": "Oc1ccc2nc(-c3ccc4ccccc4c3)n(-c3ccnc(NC4CCOCC4)n3)c2c1", "note": "[22a, 2-(Naphthalen-2-yl)-1-(2-((tetrahydro-2H-pyran-4-yl)amino)pyrimidin-4-yl)-1H-benzo[d]imidazol-6-ol]", "IC50": 1.43}, {"smiles": "Oc1ccc2nc(-c3ccc4c(c3)OCCO4)n(-c3ccnc(NC4CCCCC4)n3)c2c1", "note": "[23b, 1-(2-(Cyclohexylamino)pyrimidin-4-yl)-2-(2,3-dihydrobenzo[b][1,4]dioxin-6-yl)-1H-benzo [d]imidazol-6-ol]", "IC50": 0.281}, {"smiles": "O=C(C1CC1)N1CCC[C@H](Nc2nccc(-n3c(-c4ccc5occc5c4)nc4ccc(O)cc43)n2)C1", "note": "[26c, (S)-(3-((4-(2-(Benzofuran-5-yl)-6-hydroxy-1H-benzo[d]imidazol-1-yl)pyrimidin-2-yl)amino)piperidin-1-yl)(cyclopropyl)methanone]", "IC50": 0.042}, {"smiles": "Oc1ccc2nc(-c3ccc4occc4c3)n(-c3ccnc(NC4CCOCC4)n3)c2c1", "note": "[22c, 2-(Benzofuran-5-yl)-1-(2-((tetrahydro-2H-pyran-4-yl)amino)pyrimidin-4-yl)-1H-benzo[d]imidazol-6-ol]", "IC50": 2.19}, {"smiles": "O=C(C1CC1)N1CCC[C@H](Nc2nccc(-n3c(-c4ccc5c(c4)OCCO5)nc4ccc(O)cc43)n2)C1", "note": "[26b, (S)-Cyclopropyl(3-((4-(2-(2,3-dihydrobenzo[b][1,4]dioxin-6-yl)-6-hydroxy-1H-benzo[d]imidazol-1-yl)pyrimidin-2-yl)amino)piperidin-1-yl)methanone]", "IC50": 0.114}, {"smiles": "Oc1ccc2c(c1)nc(-c1ccc(F)c(C(F)(F)F)c1)n2-c1ccnc(NC2CCCCC2)n1", "note": "[10e, 1-(2-(Cyclohexylamino)pyrimidin-4-yl)-2-(4-fluoro-3-(trifluoromethyl)phenyl)-1H-benzo [d]imidazol-5-ol]", "IC50": 0.799}, {"smiles": "O=C(C1CC1)N1CCC[C@H](Nc2nccc(-n3c(-c4ccc(F)c(C(F)(F)F)c4)nc4ccc(O)cc43)n2)C1", "note": "[26e, (S)-Cyclopropyl(3-((4-(2-(4-fluoro-3-(trifluoromethyl)phenyl)-6-hydroxy-1H-benzo[d]imidazol-1-yl)pyrimidin-2-yl)amino)piperidin-1-yl)methanone]", "IC50": 0.1}, {"smiles": "Oc1ccc2nc(-c3ccc4ccccc4n3)n(-c3ccnc(NC4CCCCC4)n3)c2c1", "note": "[23f, 1-(2-(Cyclohexylamino)pyrimidin-4-yl)-2-(quinolin-2-yl)-1H-benzo[d]imidazol-6-ol]", "IC50": 0.424}, {"smiles": "Oc1ccc2c(c1)nc(-c1ccc3c(c1)OCCO3)n2-c1ccnc(NC2CCCCC2)n1", "note": "[10b, 1-(2-(Cyclohexylamino)pyrimidin-4-yl)-2-(2,3-dihydrobenzo[b][1, 4]dioxin-6-yl)-1H-benzo [d]imidazol-5-ol]", "IC50": 1.21}, {"smiles": "Oc1ccc2nc(-c3ccc4c(c3)OCCO4)n(-c3ccnc(NC4CCOCC4)n3)c2c1", "note": "[22b, 2-(2,3-Dihydrobenzo[b][1,4]dioxin-6-yl)-1-(2-((tetrahydro-2H-pyran-4-yl)amino)pyrimidin-4-yl)-1H-benzo[d]imidazol-6-ol]", "IC50": 1.55}, {"smiles": "O=C(C1CC1)N1CCC[C@H](Nc2nccc(-n3c(-c4ccc(Cl)c(Cl)c4)nc4cc(O)ccc43)n2)C1", "note": "[13d, (S)-Cyclopropyl(3-((4-(2-(3,4-dichlorophenyl)-5-hydroxy-1H-benzo[d]imidazol-1-yl)pyrimidin-2-yl)amino)piperidin-1-yl)methanone]", "IC50": 0.128}, {"smiles": "Oc1ccc2c(c1)nc(-c1ccc3ccccc3c1)n2-c1ccnc(NC2CCOCC2)n1", "note": "[9a]", "IC50": 1.48}, {"smiles": "Oc1ccc2nc(-c3ccc4ccccc4c3)n(-c3ccnc(NC4CCCCC4)n3)c2c1", "note": "[23a, 1-(2-(Cyclohexylamino)pyrimidin-4-yl)-2-(naphthalen-2-yl)-1H-benzo[d]imidazol-6-ol]", "IC50": 0.045}, {"smiles": "O=C(C1CC1)N1CCC[C@H](Nc2nccc(-n3c(-c4ccc(F)c(C(F)(F)F)c4)nc4cc(O)ccc43)n2)C1", "note": "[13e, (S)-Cyclopropyl(3-((4-(2-(4-fluoro-3-(trifluoromethyl)phenyl)-5-hydroxy-1H-benzo[d]imidazol-1-yl)pyrimidin-2-yl)amino)piperidin-1-yl)methanone]", "IC50": 0.679}, {"smiles": "Oc1ccc2c(c1)nc(-c1ccc3occc3c1)n2-c1ccnc(NC2CCOCC2)n1", "note": "[9c, 2-(Benzofuran-5-yl)-1-(2-((tetrahydro-2H-pyran-4-yl)amino)pyrimidin-4-yl)-1H-benzo[d] imidazol-5-ol]", "IC50": 4.31}, {"smiles": "Oc1ccc2nc(-c3ccc(F)c(C(F)(F)F)c3)n(-c3ccnc(NC4CCCCC4)n3)c2c1", "note": "[23e, 1-(2-(Cyclohexylamino)pyrimidin-4-yl)-2-(4-fluoro-3-(trifluoromethyl)phenyl)-1H-benzo [d]imidazol-6-ol]", "IC50": 0.305}, {"smiles": "O=C(C1CC1)N1CCC[C@H](Nc2nccc(-n3c(-c4ccc5ccccc5n4)nc4ccc(O)cc43)n2)C1", "note": "[26f, (S)-Cyclopropyl(3-((4-(6-hydroxy-2-(quinolin-2-yl)-1H-benzo[d]imidazol-1-yl)pyrimidin-2-yl)amino)piperidin-1-yl)methanone]", "IC50": 0.189}, {"smiles": "Oc1ccc2nc(-c3ccc4occc4c3)n(-c3ccnc(NC4CCCCC4)n3)c2c1", "note": "[23c, 2-(Benzofuran-5-yl)-1-(2-(cyclohexylamino)pyrimidin-4-yl)-1H-benzo[d]imidazol-6-ol]", "IC50": 0.071}, {"smiles": "Oc1ccc2c(c1)nc(-c1ccc3occc3c1)n2-c1ccnc(NC2CCCCC2)n1", "note": "[10c, 2-(Benzofuran-5-yl)-1-(2-(cyclohexylamino)pyrimidin-4-yl)-1H-benzo[d]imidazol-5-ol]", "IC50": 0.299}, {"smiles": "Oc1ccc2c(c1)nc(-c1ccc3ccccc3n1)n2-c1ccnc(NC2CCCCC2)n1", "note": "[10f, 1-(2-(Cyclohexylamino)pyrimidin-4-yl)-2-(quinolin-2-yl)-1H-benzo[d]imidazol-5-ol]", "IC50": 0.424}, {"smiles": "Oc1ccc2c(c1)nc(-c1ccc3c(c1)OCCO3)n2-c1ccnc(NC2CCOCC2)n1", "note": "[9b, 2-(2,3-Dihydrobenzo[b][1,4]dioxin-6-yl)-1-(2-((tetrahydro-2H-pyran-4-yl)amino)pyrimidin-4-yl)-1H-benzo[d]imidazol-5-ol]", "IC50": "> 10"}, {"smiles": "O=C(C1CC1)N1CCC[C@H](Nc2nccc(-n3c(-c4ccc5ccccc5n4)nc4cc(O)ccc43)n2)C1", "note": "[13f, (S)-Cyclopropyl(3-((4-(5-hydroxy-2-(quinolin-2-yl)-1H-benzo[d]imidazol-1-yl)pyrimidin-2-yl)amino)piperidin-1-yl)methanone]", "IC50": 0.161}, {"smiles": "Oc1ccc2nc(-c3ccc(Cl)c(Cl)c3)n(-c3ccnc(NC4CCCCC4)n3)c2c1", "note": "[23d, 1-(2-(Cyclohexylamino)pyrimidin-4-yl)-2-(3,4-dichlorophenyl)-1H-benzo[d]imidazol-6-ol]", "IC50": 0.11}, {"smiles": "O=C(C1CC1)N1CCC[C@H](Nc2nccc(-n3c(-c4ccc5c(c4)OCCO5)nc4cc(O)ccc43)n2)C1", "note": "[13b, (S)-Cyclopropyl(3-((4-(2-(2,3-dihydrobenzo[b][1, 4]dioxin-6-yl)-5-hydroxy-1H-benzo[d]imidazol-1-yl)pyrimidin-2-yl)amino)piperidin-1-yl)methanone]", "IC50": 0.679}, {"smiles": "O=C(C1CC1)N1CCC[C@H](Nc2nccc(-n3c(-c4ccc(Cl)c(Cl)c4)nc4ccc(O)cc43)n2)C1", "note": "[26d, (S)-Cyclopropyl(3-((4-(2-(3,4-dichlorophenyl)-6-hydroxy-1H-benzo[d]imidazol-1-yl)pyrimidin-2-yl)amino)piperidin-1-yl)methanone]", "IC50": 0.022}, {"smiles": "Oc1ccc2c(c1)nc(-c1ccc3ccccc3c1)n2-c1ccnc(NC2CCCCC2)n1", "note": "[10a, 1-(2-(cyclohexylamino)pyrimidin-4-yl)-2-(naphthalen-2-yl)-1H-benzo[d]imidazol-5-ol]", "IC50": 0.42}, {"smiles": "Oc1ccc2c(c1)nc(-c1ccc(Cl)c(Cl)c1)n2-c1ccnc(NC2CCCCC2)n1", "note": "[10d, 1-(2-(Cyclohexylamino)pyrimidin-4-yl)-2-(3,4-dichlorophenyl)-1H-benzo[d]imidazol-5-ol]", "IC50": 0.139}, {"smiles": "O=C(C1CC1)N1CCC[C@H](Nc2nccc(-n3c(-c4ccc5occc5c4)nc4cc(O)ccc43)n2)C1", "note": "[13c, (S)-(3-((4-(2-(Benzofuran-5-yl)-5-hydroxy-1H-benzo[d]imidazol-1-yl)pyrimidin-2-yl)amino)piperidin-1-yl)(cyclopropyl)methanone]", "IC50": 0.287}, {"smiles": "O=C(C1CC1)N1CCC[C@H](Nc2nccc(-n3c(-c4ccc5ccccc5c4)nc4cc(O)ccc43)n2)C1", "note": "[13a, (S)-cyclopropyl(3-((4-(5-hydroxy-2-(naphthalen-2-yl)-1H-benzo[d]imidazol-1-yl)pyrimidin-2-yl)amino)piperidin-1-yl)methanone]", "IC50": 0.391}]}, {"biological_target": "T1, JNK3(h)", "experiment": "Kinase HotSpot radiometric assay, JNK3", "type": "biochemical", "settings": "read-out: JNK3 IC50", "units": {"IC50": "µM"}, "values": [{"smiles": "O=C(C1CC1)N1CCC[C@H](Nc2nccc(-n3c(-c4ccc(Cl)c(Cl)c4)nc4ccc(O)cc43)n2)C1", "note": "[26d, (S)-Cyclopropyl(3-((4-(2-(3,4-dichlorophenyl)-6-hydroxy-1H-benzo[d]imidazol-1-yl)pyrimidin-2-yl)amino)piperidin-1-yl)methanone]", "IC50": "~0.02"}]}]}
